Format in all cases: biochemical
Test [1] has as its target hCA I (Homo sapiens, UniProt P00915). Nature of the test: biochemical. The conditions noted are these: for IC50: esterase method; for Ki: from Lineweaver-Burk graphs, mean ± SD. Here is the method:
(§1) […] Both hCA isoforms were purified by using the Sepharose-4B-L-Tyrosine-sulfanilamide affinity technique. Then, the purity of these CA isoenzymes was defined via the SDS-PAGE purity technique.
(§2) In order to investigate the in vitro inhibitory mechanisms of bromophenols (13–21), kinetic studies were performed at different concentrations of bromophenols and various substrates.

For test [2], the target named is hCA II (Homo sapiens, UniProt P00918). The experiment in a line: biochemical. Conditions: for IC50: esterase method; for Ki: from Lineweaver-Burk graphs, mean ± SD. The method, then:
as §1, §2

In test [3] the target is AChE (Electrophorus electricus, UniProt O42275). The experiment in a line: AChE inhibition, Ellman's method at 412 nm, acetylthiocholine iodide substrate. Conditions: for IC50: Ellman's method; for Ki: from Lineweaver-Burk graphs, mean ± SD. The method, then:
Acetylthiocholine iodide (AChI) was used as substrate, according to a prior study. […]
as §2

The mark [4] stands for this setting: 19 and 21 compared (hydroxyl instead of methyl).

hCA I, sequence (P00915 whole entry, canonical isoform): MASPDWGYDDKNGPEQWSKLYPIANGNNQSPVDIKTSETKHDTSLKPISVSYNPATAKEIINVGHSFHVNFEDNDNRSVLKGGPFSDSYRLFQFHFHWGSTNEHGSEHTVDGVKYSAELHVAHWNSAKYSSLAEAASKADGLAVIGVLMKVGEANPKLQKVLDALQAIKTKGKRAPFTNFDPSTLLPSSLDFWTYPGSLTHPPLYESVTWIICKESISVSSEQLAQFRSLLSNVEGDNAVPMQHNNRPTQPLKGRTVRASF
AChE, sequence (O42275 24-633): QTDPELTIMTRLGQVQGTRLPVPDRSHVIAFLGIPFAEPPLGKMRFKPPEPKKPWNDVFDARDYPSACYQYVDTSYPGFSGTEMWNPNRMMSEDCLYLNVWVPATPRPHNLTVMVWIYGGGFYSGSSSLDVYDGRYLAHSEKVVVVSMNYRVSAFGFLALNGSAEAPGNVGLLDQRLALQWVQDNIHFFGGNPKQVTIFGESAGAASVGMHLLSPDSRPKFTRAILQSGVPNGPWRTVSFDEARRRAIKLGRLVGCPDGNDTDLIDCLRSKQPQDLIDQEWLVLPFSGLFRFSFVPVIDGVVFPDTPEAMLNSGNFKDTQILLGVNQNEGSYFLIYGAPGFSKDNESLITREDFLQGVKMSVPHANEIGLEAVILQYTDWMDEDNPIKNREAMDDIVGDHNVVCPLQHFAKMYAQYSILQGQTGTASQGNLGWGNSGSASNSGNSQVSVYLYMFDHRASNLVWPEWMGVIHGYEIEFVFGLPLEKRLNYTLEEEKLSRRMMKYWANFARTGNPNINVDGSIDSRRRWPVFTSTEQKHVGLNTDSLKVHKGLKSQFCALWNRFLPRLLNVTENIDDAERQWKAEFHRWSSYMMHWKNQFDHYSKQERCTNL

As a reminder, the IC50 is the midpoint of a concentration-inhibition curve. A higher IC50 goes with lower potency. As usually defined, the Ki is a dissociation constant, usually derived from enzyme kinetics or from competition with a known ligand. Lower therefore signals higher affinity. For “1-Bromo-4,5-dimethoxy-2-(5-methoxy-2-methylbenzyl)benzene [Compound 14]”, the “fold greater effect on inhibition, hCA I” value in test [1] (14 (methyl) compared with 16 (methoxy)) was 5.06 fold. For the same molecule, the “fold difference in the inhibition value, hCA I” value in test [1] (compounds 14 and 19 compared) is given as 8.04 fold. Further, the figures for the half-inhibitory concentration (IC50) in test [1], in test [2] and in test [3] were 19.8 nM, 14.7 nM and 11.9 nM, respectively. For the same molecule, the Ki in test [1] amounted to 2.53 ± 0.25 nM; in test [2], 4.28 ± 0.86 nM; in test [3] it was 11.6 ± 2.75 nM.

In test [3], “4-Bromo-5-(2-bromo-4-hydroxybenzyl)benzene-1,2-diol [Compound 19]” yielded an IC50 of 20.4 nM and a Ki of 17.4 ± 3.15 nM.

Consider `COc1ccc(Cc2cc(OC)c(OC)cc2Br)c(Br)c1` [Compound 13, 1-Bromo-2-(2-bromo-4-methoxybenzyl)-4,5-dimethoxybenzene], for which, in test [1], inhibition was half-maximal at 38.5 nM (IC50) and the affinity corresponds to a Ki of 25.7 ± 4.58 nM. Further, in test [2], the half-inhibitory concentration (IC50) came out at 21 nM and the inhibition constant (Ki) is 1.63 ± 0.11 nM.

For the molecule `COc1cc(Cc2cc(OC)c(OC)cc2Br)c(OC)cc1Br` [Compound 15, 1-Bromo-2-(4-bromo-2,5-dimethoxybenzyl)-4,5-dimethoxybenzene], in test [1] (15 compared with 16 (bromo group at 4th position)), the “fold decrease in the Ki value, hCA I” value amounted to 1.37 fold. In test [1], this molecule registered a 50% inhibitory concentration (IC50) of 20.4 nM and a Ki of 9.35 ± 1.88 nM. In test [2], this molecule yielded an IC50 of 15.1 nM and a Ki of 2.62 ± 0.13 nM.

For the molecule `COc1ccc(OC)c(Cc2cc(OC)c(OC)cc2Br)c1` [Compound 16, 1-Bromo-2-(2,5-dimethoxybenzyl)-4,5-dimethoxybenzene], in test [1], inhibition was half-maximal at 21 nM (IC50) and the inhibition constant Ki is 12.8 ± 0.52 nM. In test [2], this molecule showed an IC50 of 15.8 nM and an inhibitory constant (Ki) of 7.77 ± 0.57 nM.

As to `COc1cc(Br)c(Cc2ccc(OC)c(OC)c2OC)cc1OC` [Compound 17, 1-(2-bromo-4,5dimethoxybenzyl)-2,3,4-trimethoxybenzene], the IC50 amounted to 27.7 nM in test [1] and 23.1 nM in test [2]. In addition, the values for the Ki in test [1] and in test [2] were 18.8 ± 4.97 nM and 10.3 ± 1.88 nM, respectively.

In test [1], `Oc1ccc(Cc2cc(O)c(O)cc2Br)c(Br)c1` [Compound 18, 4-Bromo-5-(2-bromo-4-hydroxybenzyl)benzene-1,2-diol] registered an IC50 of 15.4 nM and a Ki of 12.5 ± 0.66 nM. In test [2], the IC50 was 11.4 nM and the inhibition constant (Ki) was 9.15 ± 1.36 nM.

In the case of `Oc1cc(Br)c(Cc2cc(O)c(Br)cc2O)cc1O` [Compound 20, 4-Bromo-5-(4-bromo-2,5-dihydroxybenzyl)benzene-1,2-diol], the figures for the 50% inhibitory concentration (IC50) in test [1] and in test [2] were 19.3 nM and 14.1 nM, respectively. Moreover, the inhibitory constant (Ki) turned out to be 13.4 ± 2.29 nM in test [1] and 6.21 ± 1.01 nM in test [2].

In test [1], `Oc1ccc(O)c(Cc2cc(O)c(O)cc2Br)c1` [Compound 21, 4-Bromo-5-(2,5-dihydroxybenzyl)benzene-1,2-diol] showed an IC50 of 12.4 nM and an inhibition constant (Ki) of 11 ± 3.83 nM. Besides, in test [2] (setting [4]), the “fold increase in the inhibition value, hCA II” value is recorded as 3.03 fold. In test [2], the 50% inhibitory concentration (IC50) is 7.45 nM and the inhibition constant (Ki) was found to be 4.97 ± 0.59 nM. For the same molecule, the “fold increase in the inhibition value, AChE” value in test [3] (setting [4]) is 2.67 fold.
